Laboratory results taken from PubChem BioAssay AID256 (DTP/NCI, 2004).
“And” between values parts separate entries of the source, which are not always exact repeats. Identical values can stand only once. Inconclusive results and toxic doses are left out.

System: CD2F1 mice, L1210 leukemia ip, survival T/C
Experiment: NCI In Vivo Anticancer Drug Screen. Data for tumor model L1210 Leukemia (intraperitoneal) in CD2F1 (CDF1) mice
Conditions: higher = longer survival
How it was run: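 Compound-dosed mice with transplantable tumor versus matched vehicle controls; endpoint ratio T/C reported.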

## COc1cccc2c1C(=O)c1c(O)c3c(c(O)c1C2=O)C[C@@](O)(C(=O)CO)C[C@@H]3OC1CC(N)C(O)C(C)O1 (stereo partly specified)
endpoint: mean survival time, dose: 0.06 mg/kg/injection, schedule: Q01DX009 (ip), vehicle: saline
  T/C: 105 % of control
endpoint: mean survival time, dose: 0.12 mg/kg/injection, schedule: Q01DX009 (ip), vehicle: saline
  T/C: 114 % of control
endpoint: mean survival time, dose: 0.2 mg/kg/injection, schedule: Q01DX009 (ip), vehicle: water
  T/C: 113 % of control and 114 % of control
endpoint: mean survival time, dose: 0.25 mg/kg/injection, schedule: Q01DX005 (ip), vehicle: water
  T/C: 121 % of control
endpoint: mean survival time, dose: 0.38 mg/kg/injection, schedule: Q01DX009 (ip), vehicle: saline
  T/C: 121 % of control
endpoint: mean survival time, dose: 0.39 mg/kg/injection, schedule: Q01DX009 (ip), vehicle: water
  T/C: 117 % of control
endpoint: mean survival time, dose: 0.43 mg/kg/injection, schedule: Q01DX009 (ip), vehicle: saline
  T/C: 120 % of control
endpoint: mean survival time, dose: 0.62 mg/kg/injection, schedule: Q04DX003 (ip), vehicle: water
  T/C: 120 % of control
endpoint: mean survival time, dose: 0.63 mg/kg/injection, schedule: Q04DX003 (ip), vehicle: water
  T/C: 123 % of control
endpoint: mean survival time, dose: 0.72 mg/kg/injection, schedule: Q01DX009 (ip), vehicle: saline
  T/C: 173 % of control
endpoint: mean survival time, dose: 1.0 mg/kg/injection, schedule: Q01DX001 (ip), vehicle: water
  T/C: 101 % of control
endpoint: mean survival time, dose: 1.0 mg/kg/injection, schedule: Q01DX005 (ip), vehicle: water
  T/C: 174 % of control
endpoint: mean survival time, dose: 1.08 mg/kg/injection, schedule: Q04DX003 (ip), vehicle: saline
  T/C: 124 % of control
endpoint: mean survival time, dose: 1.2 mg/kg/injection, schedule: Q01DX009 (ip), vehicle: saline
  T/C: 204 % of control
endpoint: mean survival time, dose: 1.68 mg/kg/injection, schedule: Q01DX001 (ip), vehicle: water
  T/C: 159 % of control
endpoint: mean survival time, dose: 1.68 mg/kg/injection, schedule: Q01DX009 (ip), vehicle: water
  T/C: 160 % of control
endpoint: mean survival time, dose: 1.7 mg/kg/injection, schedule: Q01DX001 (ip), vehicle: water
  T/C: 99 % of control
endpoint: mean survival time, dose: 1.8 mg/kg/injection, schedule: Q04DX003 (ip), vehicle: saline
  T/C: 121 % of control
endpoint: mean survival time, dose: 2.0 mg/kg/injection, schedule: Q01DX001 (ip), vehicle: saline
  T/C: 102 % of control
endpoint: mean survival time, dose: 2.5 mg/kg/injection, schedule: Q04DX003 (ip), vehicle: water
  T/C: 187 % of control
endpoint: mean survival time, dose: 2.8 mg/kg/injection, schedule: Q01DX001 (ip), vehicle: water
  T/C: 155 % of control
endpoint: mean survival time, dose: 2.8 mg/kg/injection, schedule: Q01DX009 (ip), vehicle: water
  T/C: 153 % of control
endpoint: mean survival time, dose: 2.9 mg/kg/injection, schedule: Q01DX001 (ip), vehicle: water
  T/C: 98 % of control
endpoint: mean survival time, dose: 3.0 mg/kg/injection, schedule: Q01DX009 (ip), vehicle: saline
  T/C: 114 % of control and 101 % of control
endpoint: mean survival time, dose: 3.13 mg/kg/injection, schedule: Q01DX009 (ip), vehicle: water
  T/C: 101 % of control
endpoint: mean survival time, dose: 4.0 mg/kg/injection, schedule: Q01DX001 (ip), vehicle: saline
  T/C: 193 % of control
endpoint: mean survival time, dose: 4.67 mg/kg/injection, schedule: Q01DX001 (ip), vehicle: water
  T/C: 166 % of control
endpoint: mean survival time, dose: 4.67 mg/kg/injection, schedule: Q01DX009 (ip), vehicle: water
  T/C: 100 % of control
endpoint: mean survival time, dose: 4.8 mg/kg/injection, schedule: Q01DX001 (ip), vehicle: water
  T/C: 102 % of control
endpoint: mean survival time, dose: 5.0 mg/kg/injection, schedule: Q01DX001 (ip), vehicle: saline
  T/C: 150 % of control and 171 % of control
endpoint: mean survival time, dose: 5.0 mg/kg/injection, schedule: Q01DX001 (ip), vehicle: water
  T/C: 151 % of control and 178 % of control
endpoint: mean survival time, dose: 5.0 mg/kg/injection, schedule: Q04DX003 (ip), vehicle: water
  T/C: 166 % of control
endpoint: mean survival time, dose: 5.4 mg/kg/injection, schedule: Q01DX001 (ip), vehicle: saline
  T/C: 151 % of control and 260 % of control
endpoint: mean survival time, dose: 6.6 mg/kg/injection, schedule: Q01DX001 (ip), vehicle: saline
  T/C: 193 % of control
endpoint: mean survival time, dose: 7.78 mg/kg/injection, schedule: Q01DX001 (ip), vehicle: water
  T/C: 153 % of control
endpoint: mean survival time, dose: 8.0 mg/kg/injection, schedule: Q01DX001 (ip), vehicle: saline
  T/C: 208 % of control
endpoint: mean survival time, dose: 8.0 mg/kg/injection, schedule: Q01DX001 (ip), vehicle: water
  T/C: 98 % of control
endpoint: mean survival time, dose: 8.0 mg/kg/injection, schedule: Q04DX003 (ip), vehicle: saline
  T/C: 163 % of control
endpoint: mean survival time, dose: 8.0 mg/kg/injection, schedule: Q04DX003 (ip), vehicle: water
  T/C: 116 % of control
endpoint: mean survival time, dose: 10.0 mg/kg/injection, schedule: Q01DX001 (ip), vehicle: water
  T/C: 169 % of control and 176 % of control
endpoint: mean survival time, dose: 10.0 mg/kg/injection, schedule: Q04DX003 (ip), vehicle: water
  T/C: 89 % of control
endpoint: mean survival time, dose: 12.96 mg/kg/injection, schedule: Q01DX001 (ip), vehicle: water
  T/C: 161 % of control
endpoint: mean survival time, dose: 13.33 mg/kg/injection, schedule: Q01DX001 (ip), vehicle: water
  T/C: 104 % of control
endpoint: mean survival time, dose: 15.0 mg/kg/injection, schedule: Q01DX001 (ip), vehicle: saline
  T/C: 196 % of control and 201 % of control
endpoint: mean survival time, dose: 18.0 mg/kg/injection, schedule: Q01DX001 (ip), vehicle: saline
  T/C: 121 % of control
endpoint: mean survival time, dose: 20.0 mg/kg/injection, schedule: Q01DX001 (ip), vehicle: saline
  T/C: 225 % of control
endpoint: mean survival time, dose: 20.0 mg/kg/injection, schedule: Q01DX001 (ip), vehicle: water
  T/C: 121 % of control and 263 % of control
endpoint: mean survival time, dose: 22.23 mg/kg/injection, schedule: Q01DX001 (ip), vehicle: water
  T/C: 119 % of control
endpoint: mean survival time, dose: 40.0 mg/kg/injection, schedule: Q01DX001 (ip), vehicle: water
  T/C: 100 % of control
endpoint: mean survival time, dose: 20.0 micrograms/kg/injection, schedule: Q01DX005 (ip), vehicle: saline
  T/C: 100 % of control
endpoint: mean survival time, dose: 40.0 micrograms/kg/injection, schedule: Q01DX005 (ip), vehicle: saline
  T/C: 117 % of control
endpoint: median survival time, dose: 0.5 mg/kg/injection, schedule: Q01DX009 (ip), vehicle: saline
  T/C: 170 % of control
endpoint: median survival time, dose: 1.0 mg/kg/injection, schedule: Q01DX005 (ip), vehicle: water
  T/C: 150 % of control
endpoint: median survival time, dose: 2.0 mg/kg/injection, schedule: Q01DX005 (ip), vehicle: water
  T/C: 162 % of control
endpoint: median survival time, dose: 2.0 mg/kg/injection, schedule: Q04DX003 (ip), vehicle: water
  T/C: 163 % of control
endpoint: median survival time, dose: 2.16 mg/kg/injection, schedule: Q04DX003 (ip), vehicle: saline
  T/C: 115 % of control
endpoint: median survival time, dose: 3.6 mg/kg/injection, schedule: Q01DX001 (ip), vehicle: saline
  T/C: 151 % of control
endpoint: median survival time, dose: 3.6 mg/kg/injection, schedule: Q04DX003 (ip), vehicle: saline
  T/C: 113 % of control
endpoint: median survival time, dose: 4.0 mg/kg/injection, schedule: Q04DX003 (ip), vehicle: saline
  T/C: 157 % of control
endpoint: median survival time, dose: 4.0 mg/kg/injection, schedule: Q04DX003 (ip), vehicle: water
  T/C: 339 % of control
endpoint: median survival time, dose: 4.8 mg/kg/injection, schedule: Q01DX001 (ip), vehicle: saline
  T/C: 103 % of control
endpoint: median survival time, dose: 5.0 mg/kg/injection, schedule: Q01DX001 (ip), vehicle: saline
  T/C: 150 % of control and 155 % of control
endpoint: median survival time, dose: 6.0 mg/kg/injection, schedule: Q01DX001 (ip), vehicle: saline
  T/C: 152 % of control
endpoint: median survival time, dose: 6.0 mg/kg/injection, schedule: Q04DX003 (ip), vehicle: saline
  T/C: 115 % of control
endpoint: median survival time, dose: 8.0 mg/kg/injection, schedule: Q01DX009 (ip), vehicle: saline
  T/C: 104 % of control
endpoint: median survival time, dose: 8.0 mg/kg/injection, schedule: Q04DX003 (ip), vehicle: saline
  T/C: 154 % of control
endpoint: median survival time, dose: 8.0 mg/kg/injection, schedule: Q04DX003 (ip), vehicle: water
  T/C: 182 % of control and 339 % of control
endpoint: median survival time, dose: 8.4 mg/kg/injection, schedule: Q04DX003 (ip), vehicle: water
  T/C: 103 % of control
endpoint: median survival time, dose: 9.6 mg/kg/injection, schedule: Q01DX001 (ip), vehicle: saline
  T/C: 113 % of control and 216 % of control
endpoint: median survival time, dose: 14.0 mg/kg/injection, schedule: Q04DX003 (ip), vehicle: water
  T/C: 78 % of control
endpoint: median survival time, dose: 16.0 mg/kg/injection, schedule: Q01DX001 (ip), vehicle: water
  T/C: 76 % of control
endpoint: median survival time, dose: 16.0 mg/kg/injection, schedule: Q01DX001 (iv), vehicle: water
  T/C: 193 % of control
endpoint: median survival time, dose: 20.0 mg/kg/injection, schedule: Q01DX001 (ip), vehicle: saline
  T/C: 71 % of control
endpoint: median survival time, dose: 26.7 mg/kg/injection, schedule: Q01DX001 (ip), vehicle: saline
  T/C: 99 % of control
endpoint: median survival time, dose: 32.0 mg/kg/injection, schedule: Q01DX001 (iv), vehicle: water
  T/C: 65 % of control
endpoint: median survival time, dose: 40.0 mg/kg/injection, schedule: Q01DX001 (ip), vehicle: saline
  T/C: 53 % of control
